Columns and labels:
Format in all cases: cell-based, mouse
[1] = test system: α7 integrin (LacZ reporter in α7βgal+/− myoblasts); experiment: Myoblast α7+/LacZ integrin FDG assay (Burkin assay in myoblasts, 96-well); settings: α7+/LacZ myoblasts, 96-well
[2] = test system: α7 integrin (LacZ reporter in α7+/LacZ myotubes); experiment: Myotube α7 integrin FDG assay (Burkin assay in myotubes, 96-well); settings: myotubes
[3] = test system: β-galactosidase in CMV-LacZ C2C12 myoblasts; experiment: CMV-LacZ secondary screen in C2C12 myoblasts (β-Gal stabilizing assay); settings: CMV-LacZ C2C12 myoblasts
Summary of the method: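 A secondary screen identifies compounds that stabilize β-gal independently of the native promoter, using CMV-LacZ C2C12 cells. Curves span 0.5–40 μM at six levels, in duplicate.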

[4] = test system: β-galactosidase in CMV-LacZ C2C12 myotubes; experiment: CMV-LacZ secondary screen in C2C12 myotubes (β-Gal stabilizing assay); settings: C2C12 CMV-LacZ myotubes, fold relative to DMSO
Summary of the method: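 First, C2C12 myoblasts were transfected with a linearized CMV-LACZ vector and clonal lines selected by FDG β-gal assay. Then cells were exposed to compounds at 0.5, 1, 5, 10, 20 and 40 μM in 96-well format, two replicates each, and β-gal measured.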

SMILES | Burkin Assay in Myoblasts, signal relative to DMSO ([1]; 0.5 uM) | Burkin Assay in Myoblasts, signal relative to DMSO ([1]; 1 uM) | Burkin Assay in Myoblasts, signal relative to DMSO ([1]; 5 uM) | Burkin Assay in Myoblasts, signal relative to DMSO ([1]; 10 uM) | Burkin Assay in Myoblasts, signal relative to DMSO ([1]; 20 uM) | Burkin Assay in Myoblasts, signal relative to DMSO ([1]; 40 uM) | Burkin Assay in Myotubes, α7 integrin LacZ reporter signal relative to DMSO ([2]; 0.5 uM) | Burkin Assay in Myotubes, α7 integrin LacZ reporter signal relative to DMSO ([2]; 1 uM) | Burkin Assay in Myotubes, α7 integrin LacZ reporter signal relative to DMSO ([2]; 5 uM) | Burkin Assay in Myotubes, α7 integrin LacZ reporter signal relative to DMSO ([2]; 10 uM) | Burkin Assay in Myotubes, α7 integrin LacZ reporter signal relative to DMSO ([2]; 20 uM) | Burkin Assay in Myotubes, α7 integrin LacZ reporter signal relative to DMSO ([2]; 40 uM) | CMV-LACZ in Myoblasts (β-galactosidase activity relative to DMSO) ([3]; 0.5 uM) | CMV-LACZ in Myoblasts (β-galactosidase activity relative to DMSO) ([3]; 1 uM) | CMV-LACZ in Myoblasts (β-galactosidase activity relative to DMSO) ([3]; 5 uM) | CMV-LACZ in Myoblasts (β-galactosidase activity relative to DMSO) ([3]; 10 uM) | CMV-LACZ in Myoblasts (β-galactosidase activity relative to DMSO) ([3]; 20 uM) | CMV-LACZ in Myoblasts (β-galactosidase activity relative to DMSO) ([3]; 40 uM) | CMV-LACZ in Myotubes, signal relative to DMSO ([4]; 0.5 uM) | CMV-LACZ in Myotubes, signal relative to DMSO ([4]; 1 uM) | further results
NC(=O)c1sc2nc3c(cc2c1N)CCC3 [MLS000707378-01] | 1.003 | 1.046 | 1.024 | 1.076 | 1.317 | 1.493 | 0.8716 | 0.8512 | 0.8899 | 1.241 | 1.046 | 1.051 | 1.0175 | 1.0883 | 0.8309 | 0.8072 | 0.8667 | 0.6548 | 1.0537 | 1.3937 | CMV-LACZ in Myotubes, signal relative to DMSO ([4]; 5 uM): 0.9294; CMV-LACZ in Myotubes, signal relative to DMSO ([4]; 10 uM): 1.0300; CMV-LACZ in Myotubes, signal relative to DMSO ([4]; 20 uM): 0.9689; CMV-LACZ in Myotubes, signal relative to DMSO ([4]; 40 uM): 0.9167
CCc1ccc(S(=O)(=O)NCCOc2cccc3cccnc23)cc1 [MLS001034810-01] | 1.021 | 0.9975 | 1.375 | 1.191 | 0.8996 | 0.8407 | 1.035 | 1.07 | 1.403 | 1.165 | 1 | 0.7593 | 0.9698 | 0.9538 | 1.0948 | 0.9459 | 1.1193 | 0.7030 | 1.1000 | 1.7389 | CMV-LACZ in Myotubes, signal relative to DMSO ([4]; 5 uM): 0.9578; CMV-LACZ in Myotubes, signal relative to DMSO ([4]; 10 uM): 1.0965; CMV-LACZ in Myotubes, signal relative to DMSO ([4]; 20 uM): 1.0578; CMV-LACZ in Myotubes, signal relative to DMSO ([4]; 40 uM): 1.1344
Cc1cc([N+](=O)[O-])ccc1NC(=O)C(C)N1CCN(c2ccccn2)CC1 (stereo not drawn) [MLS000764729-01] | 1.088 | 1.0582 | 0.9816 | 0.9694 | 0.9581 | 0.726 | 1.055 | 1.084 | 1.008 | 0.972 | 0.681 | 0.6075 | 0.9865 | 0.9520 | 1.0259 | 0.8880 | 1.1200 | 0.7504 | 1.0358 | 1.1432 | CMV-LACZ in Myotubes, signal relative to DMSO ([4]; 5 uM): 1.0779; CMV-LACZ in Myotubes, signal relative to DMSO ([4]; 10 uM): 0.9634; CMV-LACZ in Myotubes, signal relative to DMSO ([4]; 20 uM): 0.9656; CMV-LACZ in Myotubes, signal relative to DMSO ([4]; 40 uM): 1.1900
Cn1cc(CN(CCO)Cc2cccs2)c(-c2ccccc2F)n1 [MLS000732652-01] | 1.176 | 1.191 | 0.972 | 1.2648 | 1.0346 | 0.8792 | 1.092 | 1.116 | 1.1938 | 1.141 | 0.6797 | 0.7309 | 0.6700 | 0.7744 | 1.1327 | 1.1235 | 0.9374 | 0.7856 | 1.1615 | 0.8859 | CMV-LACZ in Myotubes, signal relative to DMSO ([4]; 5 uM): 1.0614; CMV-LACZ in Myotubes, signal relative to DMSO ([4]; 10 uM): 1.0697; CMV-LACZ in Myotubes, signal relative to DMSO ([4]; 20 uM): 0.8518; CMV-LACZ in Myotubes, signal relative to DMSO ([4]; 40 uM): 1.0329
COCCSc1ccccc1C(=O)Nc1cc(C)cc(C)c1 [MLS000675441-01] | 0.9397 | 0.8764 | 1.044 | 1.248 | 0.9015 | 0.8996 | 0.8552 | 1.071 | 0.9591 | 1.119 | 0.7476 | 0.7168 | 1.0332 | 0.9289 | 0.8800 | 0.8690 | 0.8656 | 0.7437 | 1.0074 | 1.1032 | CMV-LACZ in Myotubes, signal relative to DMSO ([4]; 5 uM): 1.0460; CMV-LACZ in Myotubes, signal relative to DMSO ([4]; 10 uM): 1.0337; CMV-LACZ in Myotubes, signal relative to DMSO ([4]; 20 uM): 0.9578; CMV-LACZ in Myotubes, signal relative to DMSO ([4]; 40 uM): 0.9822
COc1ccccc1C(=O)Nc1ccnn1C1CCN(C(=O)c2ccoc2)CC1 [MLS001083082-01] | 0.9036 | 0.9516 | 1.058 | 1.023 | 1.014 | 0.9468 | 1.035 | 0.9411 | 1.07 | 1.05 | 0.8987 | 0.937 | 0.8591 | 0.9234 | 1.0409 | 1.1713 | 0.9615 | 0.8144 | 0.9615 | 1.0326 | CMV-LACZ in Myotubes, signal relative to DMSO ([4]; 5 uM): 0.9984; CMV-LACZ in Myotubes, signal relative to DMSO ([4]; 10 uM): 0.9776; CMV-LACZ in Myotubes, signal relative to DMSO ([4]; 20 uM): 1.0282; CMV-LACZ in Myotubes, signal relative to DMSO ([4]; 40 uM): 1.1165
